From US10494341B2, “Compound containing indoleacetic acid core structure and use thereof” (Beijing An Jian Xi Bio-Medical Technology Co., Ltd., priority 2015, dated 2019)

Legend:
HT-29 cells = assay: HT-29 transplanted tumors in nude mice, compound a in combination with doxorubicin; format: in vivo; details: Doxorubicin 2 mg/kg/week i.p. or compound a 3 mg/kg/day gavage, 4 weeks
Description: Compound a was administered by gavage once a day for 4 weeks continuously; Doxorubicin was injected intraperitoneally once a week for 4 weeks. Body weight and tumor volume of animals were measured and calculated according to Example 9.

[1] = tested on: colon cancer cells (SW480); details: SW480 tumors in nude mice; for effect on tumor / on sensitivity of tumor to doxorubicin: doxorubicin 2.5 mg/kg i.p. every 2 days for 5 weeks, agents daily; for death of animals during treatment: doxorubicin 2.5 mg/kg i.p., 6 mice per group
Description: The experiment was carried out using compound a in this example. Under sterile conditions, a suspension of colon cancer cells (SW480) in logarithmic growth phase (cell concentration was adjusted to 1×10^7/mL with physiological saline) was inoculated subcutaneously to 5 to 6 weeks old balb/c female nude mice on the right rear back, and each nude mice was inoculated at an amount of 0.3 ml, i.e. the number of cells contained was 3×10^6 per each mouse. 10 days later, subcutaneous transplanted tumor of 100-250 mm^3 appeared. The nude mice with tumor were randomly divided into several groups, each containing 6 mice: (1) control group; (2) doxorubicin group; (3) doxorubicin+amifostine; (4) doxorubicin+Celecoxib+intermediate II; (5) doxorubicin+intermediate I+intermediate II; (6) doxorubicin+low-dose compound a (6 mg/kg/day); (7) doxorubicin+high-dose compound a (15 mg/kg/day). Firstly, the following compounds were administered to each group of nude mice with tumor according to the following doses: intermediate I and intermediate II (3 mg/kg/day respectively), amifostine (400 mg/kg/day), Celecoxib (6 mg/kg/day). Except that amifostine was subcutaneously injected (30 minutes before irradiation), the other protective agents were administered by gavage. The above drugs were administered every day for 5 weeks continuously. 12 hours after the administration, doxorubicin (2.5 mg/kg) was injected intraperitoneally, and it was administered once every 2 days for 5 weeks. During the dosing period, the body weight of the nude mice was measured every two days with a precision electronic balance. The growth of the tumor and whether or not red and swelling and rupture occur were observed every day after inoculation. After tumor formation, the surface morphology and activity of the transplanted tumor were examined, and the longest diameter (a) and the shortest diameter (b) of the tumor nodules were measured every 3 days with a vernier caliper. […] 21 days after administration of doxorubicin, the tail vein blood of mice was collected to perform leukocyte count and blood biochemical index analysis. The tumor tissue and normal peripheral tissues were taken on the last day of treatment, and the content of the intermediate I therein was measured by HPLC (FIG. 9a). At the same time, paraffin sections were made, the occurrence of apoptosis was detected by terminal labeling (FIG. 9b), and the relative survival percentages of normal tissue and tumor tissue were calculated (the results are summarized in FIG. 9b).

peripheral leukocytes = assay: Protection against blood cell (leukocyte) damage induced by paclitaxel; format: in vivo; details: mice, paclitaxel; amifostine 400 mg/kg/day i.p.
Description: In this experiment, 10-week-old male mice (C57BL/6J) weighing about 20 grams were used as subjects, and 6 mice were taken as a group. The mice were divided into 5 groups: 1. Paclitaxel; 2. Paclitaxel+amifostine; 3. Paclitaxel+intermediate I+intermediate II; 4. paclitaxel+compound a; and 5. paclitaxel+compound b. Firstly, each group of mice was administered with a protective agent, and the specific amounts were as follows: compounds a and b: each 6 mg/kg/day (8.1 μM), amifostine: 400 mg/kg/day (1.5 mM), intermediate I+Intermediate II: each 3 mg/kg/day (8.1 μM). Except that amifostine was intraperitoneally injected (30 minutes before administering Paclitaxel, amifostine was administered), the other protective agents were administered by gavage (once a day, 25 times continuously). 12 hours after the compound a and the corresponding protective agents were administered, Paclitaxel was intraperitoneally injected (10 mg/kg/day, once every 3 days, 9 times continuously), and 7, 14, 21, 28 days later, blood of mice was drawn respectively. The number of leukocytes was analyzed.

mice (C57BL/6J) = assay: Survival rate of mice irradiated by γ-rays; format: in vivo; details: 30th day after 8.75 Gy γ-rays, 16 mice per group; for number of survived mice: intermediates each 3 mg/kg/day gavage; for survival rate: compounds 6 mg/kg/day gavage, amifostine 400 mg/kg/day i.p.
Description: In this experiment, 10-week-old male mice (C57BL/6J) weighing about 20 g were used as subjects, and 16 mice were taken as a group. The mice were divided into the following groups: 1. no γ-ray+no drug; 2. γ-ray+no drug; 3. γ-ray+amifostine; 4. γ-ray+intermediate I+intermediate II; 5. γ-ray+compound a; 6. γ-ray+compound b; and 7. γ-ray+compound d. Firstly, each group of mice was administered with a protective agent, and the specific amounts were as follows: compound a, b and d: 6 mg/kg/day (8.1 μM), amifostine: 400 mg/kg/day (1.5 mM), intermediate I+Intermediate II: each 3 mg/kg/day (8.1 μM). Except that amifostine was intraperitoneally injected (30 minutes before irradiation, amifostine was administered), the other protective agents were administered by gavage. 12 hours after administration, systemic irradiation was performed using cobalt 60γ-rays at a dose of 8.75Gy and a dose rate of 0.35 Gy/min for 25 minutes, with the radiation source 80 cm away from the mice. The mice were irradiated once, and continuously administered with drugs once daily for 10 days after irradiation. The number of survival mice was recorded. The percentage obtained by dividing the number of survival mice by the total number of mice in the experimental group (16 mice) is survival rate of mice, and the results are summarized in FIG. 7. […] It is noteworthy that in the experimental group using intermediate I+intermediate II, only one mouse is survived.

A549 cells = assay: A549 transplanted tumors in nude mice, compound used alone; format: in vivo; details: A549; cisplatin 5 mg/kg/week i.p.; compound a 5 and 25 mg/kg/day; intermediates 12.5 mg/kg/day each
Description: Except cisplatin (intraperitoneal injection, once a week), all compounds were administered by gavage, once a day for 5 weeks continuously.

COX-1 in gastric mucosa = biological target: T1, COX-1 in gastric mucosa (Rattus norvegicus, UniProt Q63921); assay: COX-1 activity assay, gastric mucosa (thromboxane B2 EIA) after oral dosing of A23187-treated rats; format: in vivo; details: for reduction of inhibition against COX-1 in gastric mucosal tissue compared with intermediate I: gavage 1, 3, 9 mg/kg/day, intermediate I 0.5 mg/kg, 6 h after dosing; for effect of inhibiting COX-1 in gastric mucosa: gavage, A23187-activated
T1 construct: from tissue; host or cells: rat gastric mucosa (in vivo dosing, tissue homogenate supernatant)
T1 sequence (Q63921 27-602): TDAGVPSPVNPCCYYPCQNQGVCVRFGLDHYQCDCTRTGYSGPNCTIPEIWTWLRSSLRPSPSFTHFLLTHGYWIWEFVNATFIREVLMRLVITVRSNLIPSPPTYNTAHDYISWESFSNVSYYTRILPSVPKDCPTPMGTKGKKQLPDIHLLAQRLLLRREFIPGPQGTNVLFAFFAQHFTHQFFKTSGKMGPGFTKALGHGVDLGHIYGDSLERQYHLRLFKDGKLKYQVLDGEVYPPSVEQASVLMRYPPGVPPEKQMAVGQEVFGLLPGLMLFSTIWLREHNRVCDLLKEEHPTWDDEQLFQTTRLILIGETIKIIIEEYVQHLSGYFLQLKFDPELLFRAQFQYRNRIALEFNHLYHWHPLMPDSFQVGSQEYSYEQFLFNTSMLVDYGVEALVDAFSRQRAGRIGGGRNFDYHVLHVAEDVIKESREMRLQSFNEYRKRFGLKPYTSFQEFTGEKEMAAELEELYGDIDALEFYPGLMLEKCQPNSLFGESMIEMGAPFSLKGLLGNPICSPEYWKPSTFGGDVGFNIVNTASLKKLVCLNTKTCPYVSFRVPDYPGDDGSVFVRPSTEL
Description: (1) COX-1 activity assay: 2 hours after intraperitoneal injection of calcium ionophore A23187 (50 mg/kg) to rats, each of the compounds a, b, c, d, e and f was orally administered (gavage) to three rats at a dose of 1, 3 and 9 mg/kg/day, respectively; the intermediate I was orally administered as a control drug to three rats at a dose of 0.5 mg/kg; and additional three rats were only administered with COX-1 activator, the calcium ionophore A23187, and were not administered with the compounds of the present invention. 6 hours after the compound of the present invention was administered, the animals were sacrificed, gastric mucosal tissue and myocardial tissue were collected, homogenized, and subjected to high-speed centrifugation (12,000 rpm), and the supernatant was collected for use. The amount of thromboxane B2 was measured using an enzyme-linked immunosorbent assay (EIA) kit (operated in accordance with the instructions provided by the manufacturer) and converted to COX1 activity.
(§1) The percentage inhibition rate against COX-1 (FIG. 1a—gastric mucosa, FIG. 1b—myocardium) and COX-2 (FIG. 1c) and the IC50 values (Table 1a—gastric mucosa; Table 1b—myocardium) of each tested pharmaceutical compound were calculated from the above data.

COX-2 = biological target: T2, COX-2 (Rattus norvegicus, UniProt P35355); assay: COX-2 activity assay (PGE2 in gastric mucosa, EIA) in LPS-treated rats; format: in vivo; details: gavage, LPS 2.5 mg/kg-activated
T2 construct: from tissue; host or cells: rat gastric mucosa (LPS-treated rats, in vivo dosing)
T2 sequence (P35355 18-604): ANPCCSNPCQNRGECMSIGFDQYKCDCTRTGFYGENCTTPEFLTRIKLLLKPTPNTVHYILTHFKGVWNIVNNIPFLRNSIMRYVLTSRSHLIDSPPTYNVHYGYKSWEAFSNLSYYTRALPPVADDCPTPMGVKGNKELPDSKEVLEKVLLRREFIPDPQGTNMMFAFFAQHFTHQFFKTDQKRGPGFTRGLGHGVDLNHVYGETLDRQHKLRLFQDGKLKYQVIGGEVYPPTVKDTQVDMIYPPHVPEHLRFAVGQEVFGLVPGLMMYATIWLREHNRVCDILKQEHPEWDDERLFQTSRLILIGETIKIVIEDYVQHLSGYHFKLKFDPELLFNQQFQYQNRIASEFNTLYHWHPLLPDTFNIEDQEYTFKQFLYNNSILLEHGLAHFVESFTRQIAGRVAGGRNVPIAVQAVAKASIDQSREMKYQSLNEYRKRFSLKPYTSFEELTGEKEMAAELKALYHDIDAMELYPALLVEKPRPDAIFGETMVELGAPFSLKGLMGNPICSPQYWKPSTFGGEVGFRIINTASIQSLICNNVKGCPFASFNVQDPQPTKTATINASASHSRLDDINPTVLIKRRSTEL
Description: (2) COX-2 activity assay: The assay was similar to that of COX-1, except that LPS was injected intraperitoneally to rats at a dose of 2.5 mg/kg to activate COX-2 in this experiment. After administration, the content of PGE2 in gastric mucosa was measured using an enzyme-linked immunosorbent assay (EIA) kit (operated according to the instructions provided by the manufacturer) and converted to COX2 activity.
as §1

SW480 cells = assay: Measurement of cellular uptake of compounds (HPLC of intermediate I); format: in vitro ADME; details: 10 μM
gastric mucosa = assay: Ulcer induction in rats after gavage (lesions of the gastric mucosa); format: in vivo

SMILES: COc1cccc2c1C(=O)c1c(O)c3c(c(O)c1C2=O)C[C@@](O)(C(=O)CO)C[C@@H]3O[C@H]1C[C@H](N)[C@H](O)[C@H](C)O1 [Doxorubicin]
- inhibition of the tumor, administered alone (HT-29 cells): only slightly inhibited
- effect on tumor / on sensitivity of tumor to doxorubicin [1]: mild inhibitory effect
- death of animals during treatment [1]: three

SMILES: NCCCNCCSP(=O)(O)O [amifostine, reference compound]
- protective effect on leukocytes at the early stage of simulated chemotherapy (peripheral leukocytes): slight better than that of the compounds a and b
- effect on tumor / on sensitivity of tumor to doxorubicin [1]: significantly interferes with the inhibitory effect of doxorubicin on the tumor
- protection of normal tissue and cells from doxorubicin ([1]; with doxorubicin): effectively protects the normal tissue
- number of survived mice (mice (C57BL/6J)): 10 mice
- survival rate (mice (C57BL/6J)): 62.5%

SMILES: N.N.[Cl][Pt][Cl] [cisplatin, reference compound]
- inhibitory effect on the tumor (A549 cells): only mild inhibitory effect

SMILES: COC1=C(OC)C(=O)C(CCCCCCCCCCOC(=O)CC2=C(C)C(=Cc3ccc([S+](C)[O-])cc3)c3cc(F)ccc32)=C(C)C1=O (stereo not shown) [compound c]
- reduction of inhibition against COX-1 in gastric mucosal tissue compared with intermediate I (COX-1 in gastric mucosa): ~700 fold
- effect of inhibiting COX-1 in gastric mucosa (COX-1 in gastric mucosa): almost lose the effect of inhibiting COX-1 in gastric mucosa
- inhibition against COX-2 (COX-2): weaker than those of compounds a and b

SMILES: COc1c(O)c(C)c(CCCCCCCCCCOC(=O)CC2=C(C)C(=Cc3ccc([S+](C)[O-])cc3)c3cc(F)ccc32)c(O)c1OC (stereo not shown) [compound d]
- reduction of inhibition against COX-1 in gastric mucosal tissue compared with intermediate I (COX-1 in gastric mucosa): ~700 fold
- effect of inhibiting COX-1 in gastric mucosa (COX-1 in gastric mucosa): almost lose the effect of inhibiting COX-1 in gastric mucosa
- inhibition against COX-2 (COX-2): weaker than those of compounds a and b
- number of survived mice (mice (C57BL/6J)): 11 mice
- survival rate (mice (C57BL/6J)): 68.75%

SMILES: COC1=C(OC)C(=O)C(COC(=O)Cc2c(C)n(C(=O)c3ccc(Cl)cc3)c3cc(OC)ccc23)=C(C)C1=O [compound f]
- reduction of inhibition against COX-1 in gastric mucosal tissue compared with intermediate I (COX-1 in gastric mucosa): ~700 fold
- effect of inhibiting COX-1 in gastric mucosa (COX-1 in gastric mucosa): almost lose the effect of inhibiting COX-1 in gastric mucosa
- inhibition against COX-2 (COX-2): weaker than those of compounds a and b

SMILES: COc1ccc2c(c1)c(CC(=O)O)c(C)n2C(=O)c1ccc(Cl)cc1 [intermediate I, reference compound]
- uptake by cells (SW480 cells): difficult to be efficiently taken up by the cells
- effect on tumor / on sensitivity of tumor to doxorubicin [1]: can also enhance the sensitivity of the tumor to Doxorubicin
- death of animals during treatment [1]: die of gastrointestinal bleeding
- prevalence of ulcer (gastric mucosa; gavage three times, 10 μM): 0/6
- prevalence of ulcer (gastric mucosa; gavage three times, 30 μM): 2/6
- prevalence of ulcer (gastric mucosa; gavage three times, 90 μM): 6/6
- Ulcer index (gastric mucosa; gavage three times, Dose 90 μM/kg, 12 hours after last gavage): 72.8 ± 6.82
- ulcer at high concentration (gastric mucosa; gavage, high concentration (90 μM)): very serious ulcer
